Experimental data reported in US6500813B1, “Ophthalmic composition containing active vitamin D” (priority 1995, dated 2002).

How the values were obtained:
laser-irradiated cornea = test: Test Example 3: corneal turbidity rating after excimer laser (PTK) irradiation in rabbits; format: in vivo, Japan white rabbits; conditions: 10^−7% solution, 20 μl/dose, 3 times/day over 14 days
Procedure: In this test, 8 Japan white rabbits each weighing 2 kg were used. A laser beam was focused on the corneal center of the right eye of each animal using an excimer laser oscillator (available from Summit Technology Co. U.S.) under anesthesia. The laser beam irradiation was carried out according to the surface-incision mode (PTK), i.e., at an energy density of 165 mj/cm^2, a rate of incision to a depth of 0.25 μm/pulse, a diameter of the incised circular area of 4.5 mm and an irradiated pulse number of 300.
These 8 test animals which had been irradiated with the laser beam were, at random, divided into two groups each comprising 4 animals, one of which constituted a drug-administered group and the other of which constituted a control group. […]
After 24 hours from the laser irradiation, the drug-administered group and the control-group were treated by dropping, in the right eye, a 10^−7% active vitamin D-containing solution [22-oxa-1β,25-dihydroxy vitamin D3: OCT (available from Chugai Pharmaceutical Co., Ltd.)] and the OCT solvent base, respectively, at 20 μl/dose and 3 times/day over 14 days. After 7 and 15 days from the irradiation, the extent of the turbidity of each cornea was evaluated on the basis of the findings for the 8 animals observed under a slit lamp microscope. […]

[1] = system: laser-irradiated cornea (corneal epithelial cells); test: Test Example 1: excimer laser (PTK) corneal incision in rabbits, slit lamp and light microscope observation; format: in vivo, Japan white rabbits
Procedure: In this test, 6 Japan white rabbits each weighing 2 kg were used. After anesthetizing each animal by intramuscularly injecting an analgesic-anesthetic at the femoral regions thereof and by simultaneously dropping local anesthetic in the eyes, a laser beam was focused on the corneal center of the right eye using an excimer laser oscillator (available from Summit Technology Co. U.S.). The laser beam irradiation was carried out according to the surface-incision mode (PTK), i.e., at an energy density of 165 mj/cm^2, a rate of incision to a depth of 0.25 μm/pulse, an incised surface diameter of 4.5 mm and a pulse number of 300.
After the laser beam irradiation, an eye drop and an ointment containing an antibiotic agent were administered to the eye. Three (Group A) out of these six animals were treated by dropping, in the right eye, an active vitamin D-containing solution (1 α-monohydroxy vitamin D: 0.01 μg/drop or 0.5 μg/ml; an alpha calcidol solution) in a rate of one drop (0.02 ml)/dose/day, starting from 24 hours after the laser beam irradiation. On the other hand, the remaining three (Group B) out of these six animals constituted a control group and were treated in the same manner by dropping, in the right eye, an ophthalmic buffer solution BSS at a rate of one drop/dose/day.
After 4, 7 and 12 days from the laser beam irradiation, the right eyes of animals in Group A and Group B (one animal each) were observed under a slit lamp microscope, followed by slaughtering one animal in each Group and then enucleation of the eyeballs. The cornea was removed from the sclerocornea of each eyeball, followed by fixing through immersion in a Carnoa's solution for 4 hours, dehydration in dry ethanol, paraffin-embedded to form a corneal slice with a thickness of 4 μm, removing paraffin by xylol, carrying out the hematoxylin-eosin staining and/or PAS staining and observation of the corneal slice under a light microscope.

[2] = system: lens capsule, aqueous humor and intraocular lens; test: Test Example 2: lens removal by ultrasonic emulsification and aspiration with intraocular lens transplantation in rabbits, slit lamp observation of turbidity; format: in vivo, Japan white house rabbits; conditions: for fibrin deposition in the anterior chamber: versus sesame oil control (animal C)
Description: In this test, three Japan white house rabbits each weighing 2 kg were used. After anesthetizing each animal by intramuscularly injecting an analgesic-anesthetic at the femoral regions thereof and by simultaneously dropping a local anesthetic in the eyes, the sclerocornea of each animal was dissected over a length of 3.5 mm, followed by excising a circular piece of the arterior capsule at a diameter of about 5 mm from the lens capsule under perfusion of the ophthalmic buffer solution BSS, removal of the lens nuclei and the cortex by the ultrasonic emulsification and aspiration technique, swelling the lens capsule by injecting a viscoelastic substance, then widening the incised port of the sclerocornea to about 7 mm and transplantation, into the lens capsule, of a poly(methyl methacrylate) intraocular lens provided with an optical part having a diameter of 6 mm. After the removal of the viscoelastic substance under vacuum suction, the incised wound of the sclerocornea was sutured with three stitches using a 9-0 nylon suture to thus complete the operation. After the completion of the operation, an eye drop and an ointment containing an antibiotic agent were administered to the conjunctiva. The right eyes of these three animals were subjected to the ultrasonic emulsification and aspiration technique and the transplantation of an intraocular lens.
One (A) out of these three animals was treated with a calcitriol solution in a rate of 1 to 2 drops/dose/day. The calcitriol solution used was prepared by dissolving and diluting calcitriol (1α,25-dihydroxy vitamin D) in ethanol and then further diluting (1:100) the resulting dilute solution, to a calcitriol concentration of 0.5 μg/ml, with an ophthalmic oil base consisting of purified sesame oil. One (B) out of the three animals was treated by orally administering the calcitriol solution in a rate of 1 ml/dose/day using a dropping pipette. The remaining one (C) out of the three animals was treated by dropping ophthalmic purified sesame oil free of any calcitriol in the right eye in a rate of 1 to 2 drops/dose/day. After the mydriasis at 1, 4, 7, 14 and 28 days from the operation, the lens capsule, aqueous humor and intraocular lens for each animal were inspected for the turbidity through the observation under a slit lamp microscope.

[3] = animal A, eye drop, after 7 days from the operation

In the case of `C=C1/C(=C\C=C2/CCC[C@]3(C)[C@@H]([C@H](C)OCCC(C)(C)O)CC[C@@H]23)C[C@@H](O)C[C@@H]1O` [OCT, 22-oxa-1β,25-dihydroxy vitamin D3], the “degree of turbidity relative to that observed for the control group” value (laser-irradiated cornea) is reported as “about ½” and the “degree of corneal turbidity, rating 0 (no turbidity) to 4 (complete opacification), average of four animals” value (laser-irradiated cornea; right eye, evaluated after 7 and 15 days, control group 3.5) is reported as 2.0.

`C=C1/C(=C\C=C2/CCC[C@]3(C)[C@@H]([C@H](C)CCCC(C)C)CC[C@@H]23)C[C@@H](O)C[C@@H]1O` [alpha calcidol, 1α-monohydroxy vitamin D] was tested, and the “opacity of the laser-irradiated site under the slit lamp microscope” value ([1]; Group A, right eye, eye drop 0.01 μg/drop (0.5 μg/ml), one drop/dose/day from 24 hours after irradiation, observed after 4, 7 and 12 days, versus BSS control (Group B)) was “quite slight opacity at the peripheral edge of the laser-irradiated site”, the “piling up growth of the corneal epithelial cells, sliced cornea under a light microscope” value ([1]; Group A, right eye, eye drop 0.01 μg/drop, one drop/dose/day, control Group B ran up to 10 layers) was “not observed such tendency as piling up growth” and the “side effect (bleeding, fibrin-deposition, corneal haze/opacity, intraocular inflammation)” value ([1]; Test Example 1, eye drop) was “not observed any side effect”.

In the case of `C=C1/C(=C\C=C2/CCC[C@]3(C)[C@@H]([C@H](C)CCCC(C)(C)O)CC[C@@H]23)C[C@@H](O)C[C@@H]1O` [calcitriol, 1α,25-dihydroxy vitamin D], the “side effect (bleeding, fibrin-deposition, corneal haze/opacity, intraocular inflammation)” value ([2]; Test Example 2, eye drop or oral) is reported as “not observed any side effect”, the “transparency, eye drop (animal A) compared with oral (animal B)” value ([2]; after 28 days from the operation) is reported as “better than that observed for the animal B” and the posterior synechia ([2]; animal A, eye drop) is reported as “did not cause any posterior synechia”. The “fibrin deposition in the anterior chamber” value ([2]; animal A, eye drop 0.5 μg/ml in sesame oil, 1 to 2 drops/dose/day) was “very low as compared with that observed for the animal C”, the “transparency of the anterior capsule” value [2, 3] was “maintained desired transparency” and the “wrinkling and opacity of the anterior capsule” value [2, 3] was “only slight wrinkling of the anterior capsule and opacity of the periphery thereof”. The “opacity and wrinkling of the anterior capsule” value ([2]; animal A, eye drop, after 28 days from the operation) was “slight opacity and wrinkling of the anterior capsule”, the posterior synechia ([2]; animal B, oral) was “did not cause any posterior synechia” and the “fibrin deposition in the anterior chamber” value ([2]; animal B, oral 1 ml/dose/day of 0.5 μg/ml solution) was “very low as compared with that observed for the animal C”. For the same compound, the “opacity and wrinkling of the anterior capsule” value ([2]; animal B, oral, after 28 days from the operation) was “slight opacity and wrinkling of the anterior capsule”.
